# Reference: US20250302720A1, “PEPTIDE-BASED HAIR TREATMENT” (Sederma, priority 2020, published 2025)
# Residues, ends and D or L forms follow the SMILES beside them.
# Columns and labels:
# BCL-2 gene = BCL-2 gene expression in NHM (qRTPCR); format: cell-based, human; conditions: 72 hours, vs control
# Protocol: NHM are cultivated and brought into contact with the peptide according to the invention or its solvent. At the end of 72 hours of contact, the melanocytes are crushed, and the mRNA are recovered, converted into cDNA which are analyzed by a qRTPCR to evaluate the changes in the level of expression of the mRNA of BCL-2.
# [1] = tested on: white and non-white hairs of volunteers; test: In-vivo non-white/white hair ratio by TrichoScan micro-photos; design: species or system human; conditions: lotion 90 ppm, 18 volunteers, temples, T 4 m
# Protocol: (§1) The in-vivo tests were carried out by applying the hair lotion described above in point 1) in the Galenic part. This lotion comprises 90 ppm of the peptide of the invention. Four independent studies were conducted with a total of 84 volunteers (average age of the entire panel of selected volunteers was 42 years). All four studies were conducted over a wide range of geographical locations, times, seasons, application sites, phototypes and methods. The details are specified in the below table.
# Only one study (at site 2) used this technology (a new tool for analyzing hair growth) which has the advantage of providing data on a very small area and seeing the hair individually. The scalp area is identified and shaved a few days before the photo, and this at different times. Widely used for the study of hair loss, with this technology, thanks to its high magnification, it is also possible to work on hair coloring. The TrichoScan® system includes an epiluminescence microcamera system.
# 2.4—Evaluation of the Number of White Hairs and Non-White Hairs The TrichoScan® software was used to determine the number of white hairs, the number of black hairs and the calculation of the black/white ratio. This ratio increases with the number of dark hairs when the treatment acts.
# [2] = tested on: grey/white hair of volunteers; test: In-vivo grey/white hair density in volunteers (standardized photos, Image J image analysis); design: species or system human
# Protocol: as §1
# All the studies used a complex photographic system, with the camera mounted on a bench to ensure perfect repositioning of the volunteer's head at all study times. For each volunteer, profile photos, and in some studies also of the back or the top of the head, were taken in cross-polarized mode to eliminate any parasitic shine so as not to interfere with the image analysis photo treatment. These photos are used to both get an overview of the grey hair intensity and, by their quality, to work on a smaller isolated area.
# The evaluation of the area occupied by grey/white hair was made in the photos with the NIH-USA™ Image J software by targeting the areas of interest.
# Commonly, a short hair size (2 cm for example) was requested, except for test site 2, and that this size be the same for a volunteer at different measurement times to facilitate before-after comparisons.
# Also, in common, each original photo, in color, was converted to an image with grey levels, the same level filter (thresholding operation) was applied before and after to the photos of the same volunteer. Non-black hair where thus selected. At the end, a binarization operation (black/white) was carried out to separate the non-black hairs (grey and white) from the blacks and to quantify the former.
# MITF = test: Expression of melanogenesis genes in NHM (qRTPCR): MITF; format: cell-based, human; conditions: 72 h, vs control, n = 4
# Protocol: NHM are cultivated and brought into contact with the peptide according to the invention or its solvent. At the end of 72 h of contact, the melanocytes are crushed, and the mRNAs are recovered, converted into cDNA which are analyzed by qRTPCR, to estimate the changes in the expression level of the mRNAs. The expression of the following genes has been studied: MITF, TYRP1 and CREB.
# [3] = tested on: Normal human skin melanocytes (NHM); test: Melanin production by NHM after 10 days; format: cell-based; conditions: vs control, n = 4
# Protocol: Normal human skin melanocytes (NHM), little or moderately melanin producing are used. These cells are cultured and brought into contact for 10 days with the peptide according to the invention at different concentrations or with its solvent in equivalent concentration (control). Culture media are changed every 2-3 days. After this contact, the cell mats are crushed, and the melanin is extracted from the cells. The melanin quantity is evaluated spectrophotometrically at 490 nm, using a standard range previously established from a melanin solution. Protein assay using the Bicinchoninic Acid (BCA) method is used to estimate the cell quantity to homogenize the obtained data.
# [4] = 7 volunteers, behind the head, T 3 m
# [5] = 7 volunteers, behind the head, T 6 m (3 months after the last application)
# [6] = 10 volunteers, top of the head, T 4 m
# [7] = 10 volunteers, top of the head, T 8 m (4 months after the last application)
# [8] = lotion 90 ppm, 5 ml/d, 17 volunteers, one side (profile), T 3 m
# [9] = lotion 90 ppm, 5 ml/d, 21 volunteers, behind the head, T 3 m
# [10] = lotion 90 ppm, 5 ml/d, 21 volunteers, one side (profile)/temple, T 3 m
# [11] = lotion 90 ppm, 5 ml/d, 25 volunteers, one side (profile), T 3 m
# [12] = lotion 90 ppm, 5 ml/d, site 2, 18 volunteers, top of the head, T 4 m
# [13] = lotion 90 ppm, 5 ml/d, site 2, 19 volunteers, top of the head, T3 m
# [14] = lotion 90 ppm, 17 volunteers, one side (profile), T 3 m
# [15] = lotion 90 ppm, 21 volunteers, behind the head, T 3 m
# [16] = lotion 90 ppm, 21 volunteers, one side (profile)/temple, T 3 m
# [17] = lotion 90 ppm, 25 volunteers, one side (profile), T 3 m
smiles,measurement,setting,value
"CCCCCCCCCCCCCCCC(=O)N1CCC[C@H]1C(=O)N1CCC[C@H]1C(=O)O [Pal-PP-OH, palmitoyl-prolyl-proline] (HELM PEPTIDE1{[CCCCCCCCCCCCCCCC(=O)[*:2]].P.P}$$$$V2.0)","expression of the BCL-2 gene, Variation (%)","BCL-2 gene; 10 ppm, n = 4",+62%; p < 0.01
same,"expression of the BCL-2 gene, Variation (%)","BCL-2 gene; 12.5 ppm, n = 4",+99%; p < 0.01
same,"expression of the BCL-2 gene, Variation (%)","BCL-2 gene; 12.5 ppm, n = 4, listed as peptide of the invention",+99%
same,"non-white/white hair Ratio, Maximum (variation)",[1],+385%
same,"non-white/white hair Ratio, Mean",[1],2.56
same,"non-white/white hair Ratio, respondents",[1],72%
same,"non-white/white hair Ratio, % Variation vs. T0",[1]; listed as peptide according to the invention,approximately +27.4%
same,"non-white/white hair Ratio, % Variation vs. T0",[1]; listed as peptide of the invention,+27.4%
same,"Grey hair density, Maximum",[2]; [4],−70%
same,"Grey hair density, Repondents",[2]; [4],100%
same,"Grey hair density, Moyenne (%)","[2]; 7 volunteers, behind the head, T 3 m (end of 3 months of application)",3.14%
same,"Grey hair density, Maximum",[2]; [5],−60%
same,"Grey hair density, Moyenne (%)",[2]; [5],3.00%
same,"Grey hair density, Repondents",[2]; [5],100%
same,"Grey hair density, Maximum",[2]; [6],−22%
same,"Grey hair density, Repondents",[2]; [6],100%
same,"Grey hair density, Moyenne (%)","[2]; 10 volunteers, top of the head, T 4 m (end of 4 months of application)",39.36%
same,"Grey hair density, Variation vs. T0","[2]; 10 volunteers, top of the head, T 4 m (end of 4 months of application), listed as peptide according to the invention",−15.04%
same,"Grey hair density, Maximum",[2]; [7],−45%
same,"Grey hair density, Moyenne (%)",[2]; [7],36.04%
same,"Grey hair density, Repondents",[2]; [7],80%
same,"Grey hair density, Variation vs. T0","[2]; 10 volunteers, top of the head, T 8 m (4 months after the last application), listed as peptide according to the invention",−22.20%
same,"decrease of the grey hair density on the temples, on average (3 tests)",[2]; after 3 months of application,32.4%
same,decrease of the grey hair density,"[2]; after 3 months of application, back of the head, 21 volunteers",31.9%
same,decrease of the grey hair density,"[2]; after 3 months of application, temples, 21 volunteers",37.5%
same,"Grey hair density, Mean (%)",[2]; [8],7.50%
same,"Grey hair density, Variation vs. T0",[2]; [8],−21.1%
same,"Grey hair density, Mean (%)",[2]; [9],3.28%
same,"Grey hair density, Variation vs. T0",[2]; [9],−31.9%
same,"Grey hair density, Mean (%)",[2]; [10],4.78%
same,"Grey hair density, Variation vs. T0",[2]; [10],−37.5%
same,"Grey hair density, Mean (%)",[2]; [11],1.90%
same,"Grey hair density, Variation vs. T0",[2]; [11],−38.7%
same,"Grey hair density, Mean (%)",[2]; [12],39.78%
same,"Grey hair density, Variation vs. T0",[2]; [12],−10.90%
same,"Grey hair density, Mean (%)",[2]; [13],40.22%
same,"Grey hair density, Variation vs. T0",[2]; [13],−8.80%
same,"Grey hair density, Maximum variation",[2]; [14],−67%
same,"Grey hair density, respondents",[2]; [14],76%
same,"Grey hair density, Maximum variation",[2]; [15],−70%
same,"Grey hair density, respondents",[2]; [15],95%
same,"Grey hair density, Maximum variation",[2]; [16],−70%
same,"Grey hair density, respondents",[2]; [16],100%
same,"Grey hair density, Maximum variation",[2]; [17],−86%
same,"Grey hair density, respondents",[2]; [17],68%
same,"Grey hair density, respondents, mean of 3 studies","[2]; lotion 90 ppm, column Mean T 3 m vs. T0, one side (profile)",81%
same,"Grey hair density, Variation vs. T0, Mean T 3 m vs. T0 of 3 studies","[2]; lotion 90 ppm, mean of the 3 studies (21, 25, 17 volunteers), one side (profile), T 3 m",−32.43%
same,"Grey hair density, Maximum","[2]; lotion 90 ppm, site 2, 18 volunteers, top of the head, T 4 m",−23%
same,"Grey hair density, respondents","[2]; lotion 90 ppm, site 2, 18 volunteers, top of the head, T 4 m, listed as peptide according to the invention",84%
same,"Grey hair density, Maximum","[2]; lotion 90 ppm, site 2, 19 volunteers, top of the head, T3 m",−26%
same,"Grey hair density, respondents","[2]; lotion 90 ppm, site 2, 19 volunteers, top of the head, T3 m, listed as peptide according to the invention",79%
same,decrease in grey/white hair,"[2]; top of the head, T 3 months",8.8%
same,decrease in grey/white hair,"[2]; top of the head, after 4 months of use",10.9%
same,variation in the expression of MITF gene,MITF; 10 ppm,+39%; p < 0.01
same,variation in the expression of MITF gene,MITF; 12.5 ppm,+42%; p < 0.01
same,"Melanin concentration, Variation (%)","[3]; 5 ppm, moderately pigmented (§) NHM",+48%; p < 0.01
same,"Melanin concentration, Variation (%)","[3]; 5 ppm, poorly pigmented (§§) NHM",+4%; nsd
same,"Melanin concentration, Variation (%)","[3]; 10 ppm, moderately pigmented (§) NHM",+123%; p < 0.01
same,"Melanin concentration, Variation (%)","[3]; 10 ppm, poorly pigmented (§§) NHM",+81%; p < 0.01
same,"Melanin concentration, Variation (%)","[3]; 12.5 ppm, moderately pigmented (§) NHM",+223%; p < 0.01
same,"Melanin concentration, Variation (%)","[3]; 12.5 ppm, poorly pigmented (§§) NHM",+113%; p < 0.01
